Test results as given in patent publication US10907187B2, “Fungal strains and methods of use” (DANISCO US INC., priority 2015, dated 2021).
Read-outs that look alike come from different tables or passages of the source.

Tests used:
Assay type in all cases: cell-based, Trichoderma reesei
[1] = system: T. reesei strain RLP37 Nik^M743T; assay: Agar (solid) medium fungicide screen, colony growth on Vogel's minimal medium with glucose; conditions: 11.25, 22.5, 45 or 90 μM, agar plates, 3 days at 32° C.
Protocol: (§1) For use in agar (solid) medium fungicide screens or selections, conidiospores from T. reesei strains RLP37 and RLP37 Nik^M743T were harvested and diluted to a concentration such that a known number of spores were plated per 10 cm plate containing nutrient agar Vogel's minimal medium with glucose (Vogel, Microbial Genet. Bull. 13:42-43 (1956); Vogel, Am. Nat. 98:435-446 (1964)). Equal numbers of spores for each strain were spread onto the surface of nutrient agar plates containing 0, 11.25, 22.5, 45 or 90 μM iprodione and allowed to grow for 3 days at 32° C. […] This mixed population of spores was spread onto Vogel's minimal medium agar containing 45 μM iprodione and allowed to grow for 3 days at 32° C. Colonies were counted and evaluated for presence of the nik1^M743T mutation by PCR and sequencing (Sequetech, Mountain View, Calif., USA), using the following primers: […]

T. reesei strain RLP37 [2] = assay: as above; conditions: agar plates, 3 days at 32° C.
Protocol: as §1

T. reesei strain RLP37 [3] = assay: Liquid medium fungicide screen, conidiospore germination in YEG; conditions: for germination and hyphal growth of conidiospores: 11.25 μM fungicide, overnight at 28° C., 10,000 spores/ml
Protocol: (§2) For use in liquid medium fungicide screens, conidiospores from T. reesei strains RLP37 and RLP37 NikM743T were harvested and diluted to a concentration of 10,000/ml. Equal numbers of spores were inoculated into liquid YEG medium (5 g/L yeast extract, 22 g/1 glucose. H2O) containing 0, 11.25, 22.5, 45 or 90 μM iprodione or fludioxonil and allowed to germinate overnight at 28° C. […] Furthermore, sensitivity of RLP37 and resistance of RLP37 NikM743T persisted when inoculation culture was scaled up to […].

[4] = system: T. reesei strain RLP37 NikM743T; assay: as above; conditions: all concentrations tested (11.25, 22.5, 45 or 90 μM), overnight at 28° C.
Protocol: as §2

SMILES | colony growth [1] | colony growth (T. reesei strain RLP37 [2]; 45 μM and above) | colony growth (T. reesei strain RLP37 [2]; 11.25 and 22.5 μM) | germination and growth of conidiospores (T. reesei strain RLP37 [3]) | germination and hyphal growth of conidiospores (T. reesei strain RLP37 [3]; liquid YEG medium) | germination and hyphal growth of conidiospores [4] | germination and growth of conidiospores (T. reesei strain RLP37 [3]; concentrations above 11.25 μM (22.5, 45 or 90 μM), liquid YEG medium, overnight at 28° C.)
CC(C)NC(=O)N1CC(=O)N(c2cc(Cl)cc(Cl)c2)C1=O [iprodione] | grew similarly to colonies growing on nutrient agar plates without iprodione | failed to grow at all | failed to grow to any larger than the size of the tip of a pin | complete inhibition of germination and growth | clear inhibition of hyphal growth | germinated and produced elongated hyphae | –
N#Cc1c[nH]cc1-c1cccc2c1OC(F)(F)O2 [fludioxonil] | – | – | – | – | clear inhibition of hyphal growth | germinated and produced elongated hyphae | complete inhibition of germination and growth
